Measured values as given in PubChem BioAssay (NCI).
≈ marks a conversion by molar mass, not a printed value. Where “and” joins values, the source holds several entries; their conditions need not be identical. Identical values can stand only once.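 Tested at 5 concentrations; 48 h exposure; 96-well plates; endpoints linearly interpolated, else capped at highest concentration. GI50 = concentration required for 50% inhibition of growth. TGI is the concentration that stops growth completely.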 Calls of active or inactive are those of the source. Rule as the data show it: active = GI50 below about 0.43 µM; inactive = the rest. Where a SMILES comes first, the peptide text is derived from it. [ ]: non-standard residue; d: D form. The star is where a group is joined. ξ: configuration not given here. NMeN = CN[C@@H](CC(N)=O)C(=O)O; NMeV = CN[C@H](C(=O)O)C(C)C; ξNMeV = CNC(C(=O)O)C(C)C; Boc = CC(C)(C)OC(=O)*; ξNMeA = CNC(C)C(=O)O

Assays:
Assay in all cases: growth of human tumour cells (NCI), 48 h
HOP-18 NSCLC = tested on: HOP-18 NSCLC
KM20L2 colon = tested on: KM20L2 colon
LXFL 529 NSCLC = tested on: LXFL 529 NSCLC
SNB-78 CNS = tested on: SNB-78 CNS
MDA-MB-231 breast = tested on: MDA-MB-231 breast
MDA-MB-435 = tested on: MDA-MB-435
MDA-N = tested on: MDA-N
XF 498 CNS = tested on: XF 498 CNS
RXF-631 renal = tested on: RXF-631 renal

SMILES | TGI (HOP-18 NSCLC) [µM] | TGI (KM20L2 colon) [µM] | TGI (LXFL 529 NSCLC) [µM] | TGI (SNB-78 CNS) [µM] | TGI (MDA-MB-231 breast) | TGI (MDA-MB-435) | TGI (XF 498 CNS) [µM] | other results
CC(C)C1CCC/C=C/C=C/C=C/C=C/C(OC2OC(C)C(O)C(N)C2O)CC2OC(O)(CC(O)CC(O)C(O)CCC(=O)O1)CC(O)C2C(=O)O (stereo not drawn) | > 52.5 | > 52.5 | > 52.5 | > 52.5 |  |  |  | 
C=C1C(=O)[C@@]23CC1C(O)[C@@H](OC(C)=O)[C@@H]2C1(C)C(OC(C)=O)C[C@@H](OC(C)=O)C(C)(C)[C@@H]1C[C@H]3OC(C)=O (stereo partly drawn) |  |  |  |  | 7.49 µg/mL | 9.51 µg/mL |  | outcome (KM20L2 colon): inactive; outcome (LXFL 529 NSCLC): inactive; GI50 (MDA-MB-231 breast): 2.38 µg/mL; GI50 (MDA-MB-435): 2.88 µg/mL; GI50 (MDA-N): 2.28 µg/mL (≈ 4.27 µM); TGI (MDA-N): > 10 µM and 5.3 µg/mL
O=C(O)CC12C3C4C5C3C1C5C42 (stereo not drawn) |  | > 100 | > 100 | > 100 |  |  | > 100 | 
COC(=O)C12CC(c3ccccc31)C1C(=O)OC(=O)C12 (stereo not drawn) |  | > 100 | > 100 | > 100 |  |  | > 100 | 
C=C(C)CN(CC#N)CC(=C)C |  |  |  |  | > 100 µM | > 100 µM |  | TGI (MDA-N): > 100 µM
Cc1ccc(NC(=O)CCC/C(CC(=O)c2ccc(Br)cc2)=N/NC(=O)CC#N)cc1 |  | > 100 | > 100 | > 100 |  |  |  | 
CCn1c(O)c(C=N)c(=O)n(CC)c1=O | > 100 | > 100 | > 100 | > 100 |  |  |  | TGI (RXF-631 renal): > 100 µM
CCCCCCCCCCC(O)C1CCC(C(O)CCC(O)C2CCC(CCCCCCC[C@H](O)CC3=C[C@@H](C)OC3=O)O2)O1 (stereo partly drawn) | > 100 | > 100 | > 100 | > 100 |  |  | > 100 | TGI (RXF-631 renal): > 100 µM
CCc1nc(N)nc(C(=O)NCCNC(=O)c2nc(N)nc(CC)c2C)c1C | > 100 | > 100 | > 100 | > 100 |  |  | > 100 | TGI (RXF-631 renal): > 100 µM
COc1c(Cl)c2c(c(OC)c1OC)-c1ccc(SC)c(=O)cc1[C@@H](NC(=O)OCC(F)(F)F)CC2 |  |  |  |  | 3.24 µM | < 0.01 µM |  | GI50 (MDA-MB-231 breast): < 0.01 µM; GI50 (MDA-MB-435): < 0.01 µM
COc1cc(C(=O)C/C(CCC(=O)Nc2ccc(Cl)cc2C)=N/NC(=O)C(N)=O)ccc1O | > 100 | > 100 | > 100 | > 100 |  |  | > 100 | 
O=[N+]([O-])c1ccc(N=Nc2c(O)ccc3ccccc23)cc1 |  |  |  |  | > 100 µM | > 100 µM |  | TGI (MDA-N): > 100 µM
Cc1nc2cc(N)c(F)cc2[nH]1 |  |  | > 100 | > 100 |  |  | > 100 | 
COC1OC(C)C(O)CC1OS(=O)(=O)c1ccc(C)cc1 (stereo not drawn) | > 100 | > 100 | > 100 | > 100 |  |  |  | 
CCCCc1ccc(-n2c3nc(=O)n(C)c(=O)c-3nc3ccccc32)cc1 | 22.7 | 14.4 | 30.4 | 39 |  |  | 32.4 | TGI (RXF-631 renal): 35.3 µM
COc1cccc(-c2nc3sccn3c2-c2ccnc(NCCNS(=O)(=O)c3ccccc3)c2)c1 |  |  |  |  | > 100 µM | > 100 µM |  | GI50 (MDA-MB-231 breast): 3.81 µM; GI50 (MDA-MB-435): 3.1 µM
Nc1ncn(C2C=C(CO)C(O)C2O)c(=O)n1 (stereo not drawn) | > 100 | > 100 | > 100 | > 100 |  |  |  | TGI (RXF-631 renal): > 100 µM
O=P([O-])(O)OP(=O)([O-])O.[NH-][C@@H]1CCCC[C@H]1[NH-].[Pt+4] |  |  |  |  | > 100 µM | > 100 µM and 27.4 µM |  | GI50 (MDA-MB-231 breast): > 100 µM; GI50 (MDA-MB-435): 11.8 µM and 4.04 µM
COC(=O)C(C)N(C)C(=O)[C@H](CC(N)=O)N(C)C(=O)[C@@H]1CCCN1C(=O)[C@H](C(C)C)N(C)C(=O)C(C(C)C)N(C)C(=O)[C@@H](NC(=O)OC(C)(C)C)C(C)C (stereo partly drawn) (Boc-V[ξNMeV][NMeV]P[NMeN][ξNMeA]-OMe) | > 100 | > 100 | > 100 | > 100 | > 50 µM | > 50 µM | > 100 | TGI (MDA-N): > 50 µM
CC1=C2C[C@H]3[C@@H](CC=C4C[C@@H](O)CC[C@@]43C)[C@@H]2CC[C@]12O[C@@H]1C[C@H](C)CN[C@H]1[C@H]2C |  |  |  |  | 42.6 µM and 49.7 µM | > 50 µM and 42.1 µM |  | GI50 (MDA-MB-231 breast): 17.8 µM and 23.7 µM; GI50 (MDA-MB-435): > 50 µM and 17.2 µM
Nc1nc(=S)[nH]c(C(=O)Nc2ccc(Cl)c(Cl)c2)c1-c1ccc(Cl)cc1 | > 100 | > 100 | > 100 |  |  |  | > 100 | TGI (RXF-631 renal): > 100 µM
C1CCN(C2OC3C(COC3N3CCCCC3)OC2OC2CCO[C@@H]2N2CCCCC2)CC1 (stereo partly drawn) |  | > 100 | 68.5 | 56.1 |  |  | 37.3 | 
O=S(=O)(c1ccc(N=C2NN=C(c3c[nH]c4ccccc34)CS2)cc1)N1CCOCC1 |  |  |  |  | > 100 µM | > 100 µM |  | GI50 (MDA-MB-231 breast): 45.3 µM; GI50 (MDA-MB-435): 8.85 µM
Cc1cc(N2CCN(c3ccnc4cc(Cl)ccc34)CC2)nc(NC2CCCCC2)n1 |  |  |  |  | 4.09 µM | 2.96 µM |  | GI50 (MDA-MB-231 breast): 2 µM; GI50 (MDA-MB-435): 1.49 µM
Cc1cc2cc3c(C)cc(=O)oc3c(C)c2o1 |  |  |  |  | > 100 µM | > 100 µM |  | TGI (MDA-N): > 100 µM
